Tests used:
Type in all cases: in vivo
[1] = system: Setaria viridis (L.) Beauv.; test: Herbicidal effect by upland field pre-emergence treatment; settings: sprayed on the soil surface, active ingredient 1000 g/ha, examined at the 21st day from the treatment
Procedure: (§1) Test For Herbicidal Effect By Upland Field Pre-Emergence Treatment An upland field soil was filled in a plastic pot of 80 cm^2. Seeds of Echinochloa crus-galli (L.) Beauv. var. crus-galli and Setaria viridis (L.) Beauv. were sowed, followed by covering with the same soil. Wettable powders produced in accordance with the Formulation 1 were diluted with water and sprayed uniformly on the soil surface using a small sprayer, in an amount of 1,000 liters per 1 hectare so that the amount of each active ingredient became 1,000 g per 1 hectare. Then, breeding was made in a greenhouse, and the herbicidal effect of each wettable powder was examined at the 21st day from the treatment in accordance with the standard shown in Table 61.

[2] = system: Echinochloa crus-galli (L.) Beauv. var. crus-galli; test: as above; settings: sprayed on the soil surface, active ingredient 1000 g/ha, examined at the 21st day from the treatment
Procedure: as §1

[3] = system: Echinochloa oryzicola Vasing.; test: Herbicidal effect by paddy field pre-emergence treatment; settings: wettable powder, active ingredient 1000 g/ha, examined at the 21st day from the treatment
Procedure: (§2) Test For Herbicidal Effect By Paddy Field Pre-Emergence Treatment
(§3) A paddy field soil was filled in a plastic pot of 100 cm^2 and subjected to puddling. Then, seeds of Echinochloa oryzicola Vasing. and Monochoria vaginalis (Murm. f.) Presl var. plantaginea (Roxb.) Solms-Laub. were sowed and water was filled in a depth of 3 cm. Next day, wettable powders produced in accordance with the Formulation 1 were diluted with water and dropped on the water surface. The application amount of each wettable powder was 1,000 g per 1 hectare in terms of the active ingredient. Then, breeding was made in a greenhouse, and the herbicidal effect of each wettable powder was examined at the 21st day from the treatment in accordance with the standard shown in Table 61.

[4] = system: Monochoria vaginalis (Murm. f.) Presl var. plantaginea (Roxb.) Solms-Laub.; test: as above; settings: wettable powder, active ingredient 1000 g/ha, examined at the 21st day from the treatment
Procedure: as §2, §3

Cn1nc(C(F)(F)F)c(CS(=O)(=O)C2=NOC(C)(CCl)C2)c1Cl (stereo not shown) [Compound 2, 3-(5-chloro-1-methyl-3-trifluoromethyl-1H-pyrazol-4-ylmethylsulfonyl)-5-chloromethyl-5-methyl-2-isoxazoline]
5: Herbicidal effect index, Setaria viridis (L.) Beauv. [1] | Herbicidal effect index, Echinochloa crus-galli (L.) Beauv. Var. crus-galli [2] | Herbicidal effect index, Echinochloa oryzicola Vasing [3] | Herbicidal effect index, Monochoria vaginalis (Burm. f) Presl Var. plantaginea (Roxb.) Solms-Laub. [4]
